Read-outs that look alike come from different tables or passages of the source.
How the values were obtained:
Pharmacokinetics in rats = assay type: in vivo, rat
Method: Male SD rats (200–220 g) were fasted overnight to administration of CMD-05 intravenously via tail vein (50 mg/kg, n = 4) or by oral gavage (50 mg/kg, n = 4). Blood samples of 0.3 ml were collected from the orbital venous at 1 min, 3 min, 5 min, 15 min, 30 min, 60 min, 120 min, 240 min, 480 min, 720 min after tail vein injection of CMD-05 and at 15 min, 30 min, 45 min, 60 min, 120 min, 240 min, 480 min, 720 min after oral of CMD-05. Plasma was obtained after centrifugation. The concentrations of CMD-05 in plasma were determined by HPLC method. The pharmacokinetic parameters of CMD-05 in the rats were analyzed by DAS2 software.

Kunming mice = assay: Acute toxicity in mice; assay type: in vivo
Method: For acute hypoglycemia test, male rats (150–250 g) were used. […].
Acute toxicological signs of included activities, nervous system response, autonomic nervous system response and death of mice were observed after a single oral dose of 2000 mg/kg.

INS-1 cells = assay: Proliferation of INS-1 cells (CCK-8); assay type: cell-based, rat; settings: 1 × 10^−4 and 3 × 10^−5 M, 24 h, CCK-8, vs DMSO
Method: The rat insulinoma cell line INS-1 (832/13) was obtained from the Department of endocrinology at 1st affiliated hospital of Chongqing medical university. Cells were cultured in RPMI 1640 (Gibco, USA) (11 mmol/l glucose, 100 units/ml penicillin, […] streptomycin, 10 mmol/l HEPES pH 7.4) supplemented with 10% FBS (Gibco, USA), 2 mmol/l L-glutamine, 1 mmol/l pyruvate, and 50 μmol/l β-mercaptoethanol. […] 10 μl of CCK-8 was then added and incubated at 37 °C and 5% CO2 for 1.5 h and […] (OD) was read at 460 nm with microplate reader. The OD value represents the proliferation activity.

[1] = Body weight of model rats; assay type: in vivo, rat; settings: 30 days treatment
Method: (§1) To establish model of T2DM, male rats (80–100 g, 9-week-old)[49] were fed high fat diet (HFD) (20% sugar, 10% lard, 10% egg yolk and 60% basal feed) after a week of normal diet. After 4 weeks, rats were injected once with low-dose streptozotocin (Solarbio, China) (STZ, 30 mg/kg i.p) to induce partial insulin deficiency, and then continuously fed HFD for 4 weeks after injection of STZ. Then the model rats were oral administrated drugs for 30 days. The body weights were recorded once a week.

recombinant human DPP-IV = molecular target: T1, recombinant human DPP-IV (Homo sapiens, UniProt P27487); assay: Recombinant human DPP-IV activity assay; assay type: biochemical; settings: Gly-Pro-MCA substrate, read-out: IC50 of DPP-IV inhibition
T1 construct: purchased R&D systems, USA
Method: DPP-IV inhibition assay was carried out using either 5 ng purified recombinant human DPP-IV (rhDPP-IV) (R&D systems, USA). Recombinant DPP-IV was mixed with ddH2O in an assay buffer (25 mM Tris-HCl, 0.2 M NaCl, 0.1% BSA, pH 7.3). […] The vehicle comprised 1% DMSO in place of test compounds. […] The fluorescence intensity of AMC corresponded to DPP-IV activity.

insulin = assay: Plasma insulin levels in model rats (ELISA); assay type: in vivo, rat; settings: 1.5 and 4.5 mg/kg, fasted, glucose load and random plasma
Method: as §1
Oral glucose load, fasted and random blood samples were collected from rats on the 28th days, the 29th days and the last of the treatment of drugs, respectively. Plasma levels of insulin and GLP-1 were measured by ELISA kits (YuanYe, China) according to the manufacturer’s recommendation. The levels of HbA1c, Triglycerides (TG), total cholesterol (TC) and low density lipoprotein cholesterol (LDL-C) in blood samples were measured by commercial assay kits (JianCheng, Nanjing, China) according to the manufacturer’s directions.

293 cells = assay: Cytotoxicity in 293 cells (CCK-8); assay type: cell-based; settings: 12 h
Method: (§2) The toxicities of CMD-05 on HT22, 293 and […] cell lines was assessed using Cell Counting Kit-8 (CCK-8) (Biosharp, China). Briefly, the cells were plated on 96-well plates. […] The absorbance at 450 nm was measured using a microplate spectrophotometer.

HT22 cells = assay: Cytotoxicity in HT22 cells (CCK-8); assay type: cell-based; settings: 3 × 10^−6 to 3 × 10^−5 M, 12 h
Method: as §2

plasma DPP-IV [2] = molecular target: T2, plasma DPP-IV (Rattus norvegicus, UniProt P14740); assay: Plasma DPP-IV activity after single oral dose in fasting normal rats; assay type: in vivo; settings: single oral 4.5 mg/kg
T2 construct: from tissue; host or cells: plasma of Sprague-Dawley rats
Method: Oral glucose load, fasted and random blood samples was collected to measure DPP-IV activity at the 28th days, the 29th days and the last treatment of the CMD-05. DPP-IV enzyme assay was carried out according to a published method. The enzyme reaction was initiated by adding 5 mM Gly-Pro-AMC as a substrate. After 25 min of incubation, fluorescence of AMC released by the reaction was measured using a spectrofluorometer at an excitation wavelength of 353 nm and emission wavelength of 442 nm.
Blood samples were collected after administration of CMD-05 (4.5 mg/kg) at 15 min, 30 min, 1 h, 2 h, 4 h, 12 h, and 24 h to measure the DPP-IV activity in fasting normal rats, the concrete steps refer to the preceding.

plasma DPP-IV [3] = molecular target: T2, plasma DPP-IV; assay: Plasma DPP-IV activity determination in model rats; assay type: in vivo
[4] = fasted plasma, read-out: plasma DPP-IV inhibition rate
[5] = glucose load plasma, read-out: plasma DPP-IV inhibition
[6] = random plasma, read-out: plasma DPP-IV inhibition

T2 sequence (P14740 whole entry): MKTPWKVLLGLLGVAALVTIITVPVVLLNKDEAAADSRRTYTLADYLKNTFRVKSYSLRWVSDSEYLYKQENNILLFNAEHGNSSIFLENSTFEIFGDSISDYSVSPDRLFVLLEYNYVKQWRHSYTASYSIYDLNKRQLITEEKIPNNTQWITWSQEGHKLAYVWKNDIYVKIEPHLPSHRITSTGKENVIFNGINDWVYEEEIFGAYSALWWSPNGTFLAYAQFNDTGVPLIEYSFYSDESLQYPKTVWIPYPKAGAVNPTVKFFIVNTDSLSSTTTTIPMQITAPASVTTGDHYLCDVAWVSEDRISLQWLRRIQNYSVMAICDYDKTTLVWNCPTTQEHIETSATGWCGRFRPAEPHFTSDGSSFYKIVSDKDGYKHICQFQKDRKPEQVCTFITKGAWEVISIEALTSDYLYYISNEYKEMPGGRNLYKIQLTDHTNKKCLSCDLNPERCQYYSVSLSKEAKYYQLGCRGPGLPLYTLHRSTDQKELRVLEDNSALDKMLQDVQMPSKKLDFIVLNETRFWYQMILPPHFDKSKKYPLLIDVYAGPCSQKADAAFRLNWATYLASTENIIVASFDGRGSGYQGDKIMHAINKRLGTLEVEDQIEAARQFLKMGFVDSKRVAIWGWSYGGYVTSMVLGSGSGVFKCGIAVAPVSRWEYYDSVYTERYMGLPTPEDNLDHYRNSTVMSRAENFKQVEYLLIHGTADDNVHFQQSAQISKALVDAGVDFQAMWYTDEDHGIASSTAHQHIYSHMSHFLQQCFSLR
T1 sequence (P27487 whole entry): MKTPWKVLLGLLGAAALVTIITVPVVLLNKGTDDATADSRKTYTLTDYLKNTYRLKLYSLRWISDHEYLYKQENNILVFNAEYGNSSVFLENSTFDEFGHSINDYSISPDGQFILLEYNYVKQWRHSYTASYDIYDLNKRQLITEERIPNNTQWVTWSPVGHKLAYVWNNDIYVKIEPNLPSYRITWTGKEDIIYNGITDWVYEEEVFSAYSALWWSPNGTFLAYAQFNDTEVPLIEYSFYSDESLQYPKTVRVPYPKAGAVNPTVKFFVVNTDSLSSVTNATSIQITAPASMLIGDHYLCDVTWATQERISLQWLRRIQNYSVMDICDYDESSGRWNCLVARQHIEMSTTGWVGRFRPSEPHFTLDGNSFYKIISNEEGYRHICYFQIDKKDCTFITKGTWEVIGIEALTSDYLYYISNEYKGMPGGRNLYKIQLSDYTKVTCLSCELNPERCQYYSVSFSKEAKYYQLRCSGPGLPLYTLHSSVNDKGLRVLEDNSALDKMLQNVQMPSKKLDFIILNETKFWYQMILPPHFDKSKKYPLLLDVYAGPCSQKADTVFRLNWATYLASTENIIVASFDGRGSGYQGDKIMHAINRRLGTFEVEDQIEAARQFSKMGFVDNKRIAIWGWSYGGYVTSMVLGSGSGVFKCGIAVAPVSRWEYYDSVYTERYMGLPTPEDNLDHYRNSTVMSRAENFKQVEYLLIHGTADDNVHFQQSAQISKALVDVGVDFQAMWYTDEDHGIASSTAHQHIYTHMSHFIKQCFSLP

N#C[C@@H]1CCCN1C(=O)CN(C(=O)CCCCCl)C12CC3CC(CC(O)(C3)C1)C2 [CMD-05]
effect of food on pharmacokinetics (Pharmacokinetics in rats; healthy rats): not affected by food | half-life (Pharmacokinetics in rats; male, SD, rat, plasma, oral, 50 mg/kg, rats, 50 mg/kg, read-out: half-life): 4.8 h | Tmax (Pharmacokinetics in rats; male, SD, rat, plasma, po, 50 mg/kg, rats, single oral 50 mg/kg, read-out: time to peak plasma concentration (converted)): 0.5 h | bioavailability (Pharmacokinetics in rats; male, SD, rat, plasma, rats, 50 mg/kg oral vs intravenous, read-out: absolute bioavailability): 84.5% | half-life (Pharmacokinetics in rats; rats, 50 mg/kg): 4.798 ± 0.437 h | time to peak plasma concentration (Pharmacokinetics in rats; rats, single oral 50 mg/kg, 50 mg/kg): 30 to 45 min | maximum tolerance dose (Kunming mice; oral): > 2000 mg/kg | acute toxicity signs (Kunming mice; single oral dose of 2000 mg/kg): no toxicological signs | cells viabilities (proliferation) of INS-1 cells (INS-1 cells): increased | body weights vs model group [1]: no significant difference | IC50 (recombinant human DPP-IV): 0.012 µM | insulin levels in plasma (insulin): significantly increased | cytotoxicity (cell viability) (293 cells; 1 × 10^−4 M): slightly reduced cell viability | cytotoxicity (cell viability) (293 cells; 3 × 10^−6 to 1 × 10^−5 M): did not induce significant cytotoxicity | cytotoxicity (cell viability) (HT22 cells): did not induce significant cytotoxicity | inhibition at 4.5 mg/kg (plasma DPP-IV [2]; rat, at 4 hours after the dose, read-out: maximum inhibition of plasma DPP-IV activity): ~90% | duration of plasma DPP-IV inhibition greater than 50% (plasma DPP-IV [2]): at least 15 hours | time of maximum inhibition of plasma DPP-IV activity (plasma DPP-IV [2]): 4 h | inhibition at 0.5 mg/kg (plasma DPP-IV [3]; [4]): ~20% | inhibition at 1.5 mg/kg (plasma DPP-IV [3]; [4]): ~30% | inhibition at 4.5 mg/kg (plasma DPP-IV [3]; [4]): ~50% | inhibition at 0.5 mg/kg (plasma DPP-IV [3]; [5]): ~10% | inhibition at 1.5 mg/kg (plasma DPP-IV [3]; [5]): ~20% | inhibition at 4.5 mg/kg (plasma DPP-IV [3]; [5]): ~70% | inhibition at 0.5 mg/kg (plasma DPP-IV [3]; [6]): ~20% | inhibition at 1.5 mg/kg (plasma DPP-IV [3]; [6]): ~30% | inhibition at 4.5 mg/kg (plasma DPP-IV [3]; [6]): ~55%
